The record followed here is patent US11142526B2, “Spirocycle compounds and methods of making and using same” (H. Lundbeck A/S, priority 2017, dated 2021).

Where two headings read alike, the source gives them in different places.

Test [1] addresses T1, MAGL (Mus musculus (Mouse), UniProt O35678). Put plainly: In vitro competitive activity-based protein profiling, mouse brain proteome. The settings on record: for inhibition at 1 µM: mouse; for IC50: mouse brain. The test is classed as biochemical.
For test [2], the target named is MAGL (Homo sapiens (Human), UniProt Q99685). The experiment in a line: In vitro competitive activity-based protein profiling (gel-based, FP-Rh or HT-01 probe). The class given is biochemical. The method, then: In Vitro Competitive Activity-Based Protein Profiling.
Proteomes (human prefrontal cortex or cell membrane fractions) (50 μL, 1.0 mg/mL total protein concentration) were preincubated with varying concentrations of inhibitors at 37° C. After 30 min, FP-Rh or HT-01 (1.0 μL, 50 μM in DMSO) was added and the mixture was incubated for another 30 min at room temperature. Reactions were quenched with SDS loading buffer (15 μL—4×) and run on SDS-PAGE.

The target in test [3] is T1, MAGL. Put plainly: Mouse brain proteomes from inhibitor treated mice (oral gavage, brain MAGL activity 4 h after administration). The test is classed as in vivo. The settings on record: 5 mg/kg oral gavage. As to the method:
Preparation of Mouse Brain Proteomes from Inhibitor Treated Mice.
Inhibitors were administered to wild-type C57B1/6J by oral gavage in a vehicle of polyethylene glycol.

Setting [4] is: human PC3, read-out: MAGL % Inhibition at 1 μM (human PC3).
Setting [5] is: human PFC (prefrontal cortex), read-out: MAGL % Inhibition at 1 μM (human PFC).
Setting [6] is: human PC3, read-out: MAGL Human PC3 (IC50).
The mark [7] stands for this setting: human PFC (prefrontal cortex), read-out: MAGL Human PFC (IC50).

Chain of MAGL (Homo sapiens (Human), UniProt Q99685) (Q99685 whole entry): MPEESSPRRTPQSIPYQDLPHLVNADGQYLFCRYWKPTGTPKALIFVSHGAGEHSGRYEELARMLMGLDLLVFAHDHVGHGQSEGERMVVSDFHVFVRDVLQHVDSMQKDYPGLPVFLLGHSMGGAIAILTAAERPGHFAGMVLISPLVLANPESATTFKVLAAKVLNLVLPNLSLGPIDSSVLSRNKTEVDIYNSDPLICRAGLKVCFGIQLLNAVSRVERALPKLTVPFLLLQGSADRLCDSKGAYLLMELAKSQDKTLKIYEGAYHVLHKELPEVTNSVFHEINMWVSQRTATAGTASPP
T1 sequence (O35678 whole entry): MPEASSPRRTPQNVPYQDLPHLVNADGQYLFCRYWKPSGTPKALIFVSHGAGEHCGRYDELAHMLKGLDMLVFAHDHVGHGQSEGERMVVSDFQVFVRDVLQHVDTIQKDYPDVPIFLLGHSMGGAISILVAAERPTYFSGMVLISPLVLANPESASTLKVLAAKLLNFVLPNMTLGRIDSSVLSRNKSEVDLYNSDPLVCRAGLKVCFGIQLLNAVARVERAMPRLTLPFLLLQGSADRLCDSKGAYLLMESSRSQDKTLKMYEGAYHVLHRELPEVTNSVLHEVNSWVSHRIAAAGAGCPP

For `O=C(OC(C(F)(F)F)C(F)(F)F)N1CCC2(CCCN2C(=O)c2cn3c(n2)CN(C2CC2)CC3)CC1` [Example 2, 1,1,1,3,3,3-Hexafluoropropan-2-yl 1-(7-cyclopropyl-5,6,7,8-tetrahydroimidazo[1,2-a]pyrazine-2-carbonyl)-1,8-diazaspiro[4.5]decane-8-carboxylate], the inhibition at 1 µM in test [1], in test [2] (setting [4]) and in test [2] (setting [5]) was > 75% in each case. In addition, the IC50 in test [1], in test [2] (setting [6]) and in test [2] (setting [7]) was < 100 nM throughout. The “MAGL % Inhibition at 5 mg/kg (Mouse)” value in test [3] is reported as “### (% inhibition is greater than or equal to 75%)”.

Consider `O=C(OC(C(F)(F)F)C(F)(F)F)N1CCC2(CCCN2C(=O)c2cncnc2N2CCCC2)CC1` [Example 5, 1,1,1,3,3,3-Hexafluoropropan-2-yl 1-(4-(pyrrolidin-1-yl)pyrimidine-5-carbonyl)-1,8-diazaspiro[4.5]decane-8-carboxylate], for which the inhibition at 1 µM in test [1] and in test [2] (setting [5]) was > 75% throughout. In addition, the IC50 in test [2] (setting [6]) and in test [2] (setting [7]) was < 100 nM in each case. For the same compound, the “MAGL % Inhibition at 5 mg/kg (Mouse)” value in test [3] was “### (% inhibition is greater than or equal to 75%)”.

As to `CN(C(=O)c1cn2c(n1)CN(C1CC1)CC2)C1(C)CCN(C(=O)OC(C(F)(F)F)C(F)(F)F)CC1` [Example 18, 1,1,1,3,3,3-Hexafluoropropan-2-yl 4-(7-cyclopropyl-N-methyl-5,6,7,8-tetrahydroimidazo[1,2-a]pyrazine-2-carboxamido)-4-methylpiperidine-1-carboxylate], the inhibition at 1 µM in test [1], in test [2] (setting [4]) and in test [2] (setting [5]) was > 75% each time. Besides, the IC50 in test [1] and in test [2] (setting [6]) was < 100 nM throughout. For the same compound, the “MAGL % Inhibition at 5 mg/kg (Mouse)” value in test [3] is given as “### (% inhibition is greater than or equal to 75%)”.

`CN(C(=O)c1nnc2n1CCN(C1CC1)C2)C1(C)CCN(C(=O)OC(C(F)(F)F)C(F)(F)F)CC1` [Example 20, 1,1,1,3,3,3-hexafluoropropan-2-yl 4-(7-cyclopropyl-N-methyl-5,6,7,8-tetrahydro-[1,2,4]triazolo[4,3-a]pyrazine-3-carboxamido)-4-methylpiperidine-1-carboxylate]: the inhibition at 1 µM in test [1], in test [2] (setting [4]) and in test [2] (setting [5]) was > 75% each time. For the same compound, the IC50 (as a rule, the concentration that inhibits the measured activity by half) in test [2] (setting [6]) was < 100 nM. Moreover, the “MAGL % Inhibition at 5 mg/kg (Mouse)” value in test [3] was “### (% inhibition is greater than or equal to 75%)”.

On to `CC(C)(O)CN1CCn2cc(C(=O)N3CCCC34CCN(C(=O)OC(C(F)(F)F)C(F)(F)F)CC4)nc2C1` [Example 21, 1,1,1,3,3,3-Hexafluoropropan-2-yl 1-(7-(2-hydroxy-2-methylpropyl)-5,6,7,8-tetrahydroimidazo[1,2-a]pyrazine-2-carbonyl)-1,8-diazaspiro[4.5]decane-8-carboxylate], for which the inhibition at 1 µM in test [1], in test [2] (setting [4]) and in test [2] (setting [5]) was > 75% each time. For the same compound, the IC50 in test [2] (setting [6]) was < 100 nM. Also, the “MAGL % Inhibition at 5 mg/kg (Mouse)” value in test [3] was “# (% inhibition less or equal to 25%)”.

`O=C(OC(C(F)(F)F)C(F)(F)F)N1CCC2(CCCN2C(=O)C2(c3ncc(Cl)cn3)CC2)CC1` [Example 31, 1,1,1,3,3,3-Hexafluoropropan-2-yl 1-(1-(5-chloropyrimidin-2-yl)cyclopropane-1-carbonyl)-1,8-diazaspiro[4.5]decane-8-carboxylate]: the inhibition at 1 µM in test [1], in test [2] (setting [4]) and in test [2] (setting [5]) was > 75% in each case. In addition, the IC50 in test [2] (setting [6]) is < 100 nM. Further, the “MAGL % Inhibition at 5 mg/kg (Mouse)” value in test [3] is given as “### (% inhibition is greater than or equal to 75%)”.

For the compound `CC(C)C(=O)N1CCn2cc(C(=O)NC3(C)CCN(C(=O)OC(C(F)(F)F)C(F)(F)F)CC3)nc2C1` [Example 37, 1,1,1,3,3,3-Hexafluoropropan-2-yl 4-(7-isobutyryl-5,6,7,8-tetrahydroimidazo[1,2-a]pyrazine-2-carboxamido)-4-methylpiperidine-1-carboxylate], the inhibition at 1 µM in test [1], in test [2] (setting [4]) and in test [2] (setting [5]) was > 75% throughout. The IC50 in test [2] (setting [6]) was < 100 nM. The “MAGL % Inhibition at 5 mg/kg (Mouse)” value in test [3] is on record as “# (% inhibition less or equal to 25%)”.

`O=C(OC(C(F)(F)F)C(F)(F)F)N1CCC2(CCCN2C(=O)C2(c3cnc(C4CC4)nc3)CC2)CC1` [Example 38, 1,1,1,3,3,3-Hexafluoropropan-2-yl 1-(1-(2-cyclopropylpyrimidin-5-yl)cyclopropane-1-carbonyl)-1,8-diazaspiro[4.5]decane-8-carboxylate]: the inhibition at 1 µM in test [1], in test [2] (setting [4]) and in test [2] (setting [5]) was > 75% throughout. Also, in test [2] (setting [6]), the IC50 was < 100 nM. In test [3], the “MAGL % Inhibition at 5 mg/kg (Mouse)” value is recorded as “### (% inhibition is greater than or equal to 75%)”.

With `O=C(OC(C(F)(F)F)C(F)(F)F)N1CCC2(CCCN2Cc2cc(-c3ccc(F)cc3)on2)CC1` [Example 39, 1,1,1,3,3,3-Hexafluoropropan-2-yl 1-((5-(4-fluorophenyl)isoxazol-3-yl)methyl)-1,8-diazaspiro[4.5]decane-8-carboxylate], the inhibition (in general, the percentage by which the read-out fell short of the control) at 1 µM in test [1] is > 75%. The IC50 in test [1] and in test [2] (setting [6]) was < 100 nM in each case. In test [3], the “MAGL % Inhibition at 5 mg/kg (Mouse)” value was “### (% inhibition is greater than or equal to 75%)”.

Consider `O=C(OC(C(F)(F)F)C(F)(F)F)N1CCC2(CCCN2Cc2cc3cc(Cl)ccc3s2)CC1` [Example 40, 1,1,1,3,3,3-Hexafluoropropan-2-yl 1-((5-chlorobenzo[b]thiophen-2-yl)methyl)-1,8-diazaspiro[4.5] decane-8-carboxylate], for which, in test [1], the inhibition at 1 µM was > 75% and the IC50 was < 100 nM. Further, the IC50 in test [2] (setting [6]) was < 100 nM. Also, the “MAGL % Inhibition at 5 mg/kg (Mouse)” value in test [3] is “### (% inhibition is greater than or equal to 75%)”.

As to `Cc1ccc2nc(Cl)c(CN3CCCC34CCN(C(=O)OC(C(F)(F)F)C(F)(F)F)CC4)cc2c1` [Example 49, 1,1,1,3,3,3-Hexafluoropropan-2-yl 1-((2-chloro-6-methylquinolin-3-yl)methyl)-1,8-diazaspiro[4.5] decane-8-carboxylate], the inhibition at 1 µM in test [1] was > 75%. Moreover, the IC50 in test [1] and in test [2] (setting [6]) was < 100 nM in each case. In addition, the “MAGL % Inhibition at 5 mg/kg (Mouse)” value in test [3] is “### (% inhibition is greater than or equal to 75%)”.

As for `O=C(OC(C(F)(F)F)C(F)(F)F)N1CCC2(CCCN2Cc2ccc3cc(F)ccc3n2)CC1` [Example 56, 1,1,1,3,3,3-Hexafluoropropan-2-yl 1-((6-fluoroquinolin-2-yl)methyl)-1,8-diazaspiro[4.5] decane-8-carboxylate], in test [1], the inhibition at 1 µM was > 75% and the IC50 is < 100 nM. The IC50 in test [2] (setting [6]) was < 100 nM. In addition, the “MAGL % Inhibition at 5 mg/kg (Mouse)” value in test [3] is “### (% inhibition is greater than or equal to 75%)”.

As to `Cc1c(CN2CCCC23CCN(C(=O)OC(C(F)(F)F)C(F)(F)F)CC3)[nH]c2ccc(F)cc12` [Example 58, 1,1,1,3,3,3-Hexafluoropropan-2-yl 1-((5-fluoro-3-methyl-1H-indol-2-yl)methyl)-1,8-diazaspiro[4.5] decane-8-carboxylate], in test [1], the inhibition at 1 µM is > 75% and the IC50 was < 100 nM. The IC50 in test [2] (setting [6]) was < 100 nM. Besides, the “MAGL % Inhibition at 5 mg/kg (Mouse)” value in test [3] was “### (% inhibition is greater than or equal to 75%)”.
